Experimental data from US20250122223A1, “HETEROCYCLIC COMPOUNDS AS UBIQUITIN SPECIFIC PROTEASE 7 INHIBITORS” (ALMAC DISCOVERY LIMITED, priority 2022, published 2025).
Like-named read-outs stand apart in the source and are kept apart here.

Target: USP7 (Homo sapiens (Human), UniProt Q93009)
Assay: USP7 fluorescence polarisation (FP) assay with ubiquitin-Lys-TAMRA substrate
Assay type: biochemical
Conditions: biochemical inhibition
Experimental: USP7 activity was monitored in a fluorescence polarisation (FP) homogeneous assay using the isopeptide ubiquitin-Lys-TAMRA substrate (U-558, Boston Biochem). Full-length USP7 was purchased from Boston Biochem (His6-USP7FL, E-519). Unless otherwise stated, all other reagents were purchased from Sigma-Aldrich. Enzymatic reactions were conducted in black flat-bottom low volume polystyrene 384-well plates (Grenier) and 15 μL total volume. USP7 (2.5 nM, 5 μL) was incubated in assay buffer (50 mM HEPES (pH 7.2), 150 mM NaCl, 5 mM DTT, 0.05% BSA (w/v), 0.05% CHAPS) in the presence or absence of inhibitor (5 μL). Inhibitors were stored as 10 mM DMSO stocks in an inert environment (low humidity, dark, low oxygen, room temperature) using a Storage Pod System and serial dilutions were prepared in buffer just prior to the assay (from 200 to 0.003 μM, 11 dp curve). Following incubation at room temperature for 30 min, the enzymatic reactions were initiated by dispensing the Ub substrate (50 nM, 5 μL). FP was measured every 5 min over a period of 1.5 h (within the linear range of the assay) using a Pherastar FSX (BMG Labtech) exciting at 530 nm and measuring the amount of parallel and perpendicular light at 575 nm. The FP signal was subsequently normalised to the control without compound present. Data were plotted and fitted, and the concentrations resulting in 50% inhibition (IC50) were calculated using the non-linear regression curve fitting model using GraphPad Prism.

[1] = read-out: USP7 IC50 activity (Table 3a, classes)
[2] = unit not given in Table 3b (Table 1 and key of Table 3a use μM), read-out: USP7 IC50 activity (Table 3b)

Sequence of USP7 (Q93009 whole entry): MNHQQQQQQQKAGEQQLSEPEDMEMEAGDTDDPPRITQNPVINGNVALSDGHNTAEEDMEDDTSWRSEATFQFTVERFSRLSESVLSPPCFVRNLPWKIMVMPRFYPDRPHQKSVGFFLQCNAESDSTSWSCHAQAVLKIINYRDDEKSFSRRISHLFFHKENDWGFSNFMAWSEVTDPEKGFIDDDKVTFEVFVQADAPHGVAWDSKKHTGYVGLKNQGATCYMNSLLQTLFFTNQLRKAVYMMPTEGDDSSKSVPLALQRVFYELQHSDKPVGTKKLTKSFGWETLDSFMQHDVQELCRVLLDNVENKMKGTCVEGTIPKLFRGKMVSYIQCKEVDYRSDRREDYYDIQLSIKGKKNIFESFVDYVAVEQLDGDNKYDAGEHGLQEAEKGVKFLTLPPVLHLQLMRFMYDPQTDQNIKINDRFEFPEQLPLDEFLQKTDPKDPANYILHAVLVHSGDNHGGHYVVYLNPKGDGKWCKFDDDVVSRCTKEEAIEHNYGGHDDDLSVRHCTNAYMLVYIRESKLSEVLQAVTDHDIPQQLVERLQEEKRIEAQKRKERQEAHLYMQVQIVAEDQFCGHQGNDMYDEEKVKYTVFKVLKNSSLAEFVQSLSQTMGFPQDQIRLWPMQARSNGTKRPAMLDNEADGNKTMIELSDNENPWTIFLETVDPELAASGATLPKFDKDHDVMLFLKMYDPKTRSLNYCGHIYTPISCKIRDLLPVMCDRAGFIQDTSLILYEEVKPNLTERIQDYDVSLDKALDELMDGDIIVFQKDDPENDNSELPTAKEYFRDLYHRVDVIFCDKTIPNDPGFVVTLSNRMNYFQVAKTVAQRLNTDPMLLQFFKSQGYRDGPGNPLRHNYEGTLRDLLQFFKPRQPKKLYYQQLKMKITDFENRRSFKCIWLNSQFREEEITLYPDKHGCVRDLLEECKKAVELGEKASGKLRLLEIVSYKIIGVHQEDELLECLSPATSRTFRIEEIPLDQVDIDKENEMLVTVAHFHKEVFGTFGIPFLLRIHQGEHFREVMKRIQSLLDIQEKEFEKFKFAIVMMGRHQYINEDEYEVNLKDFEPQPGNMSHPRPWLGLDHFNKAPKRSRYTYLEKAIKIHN

Row | IC50 [1] [µM] | IC50 [2] [µM] | Compound
1 | 0.1 to 0.25 | 0.113 | O=C(c1ccc(Cl)cc1)N1CCC(O)(Cn2cnc3c(cc(Cl)n3-c3ccc([C@@H]4COC5(CCC5)CN4)cc3)c2=O)CC1 (racemic) [Example 44, 7-(4-(5-Oxa-8-azaspiro[3.5]nonan-7-yl)phenyl)-6-chloro-3-((1-(4-chlorobenzoyl)-4-hydroxypiperidin-4-yl)methyl)-3,7-dihydro-4H-pyrrolo[2,3-d]pyrimidin-4-one]
2 | 0.1 to 0.25 | 0.147 | C[C@@H]1CN[C@@H](c2ccc(-n3c(Cl)cc4c(=O)n(CC5(O)CCN(C(=O)c6ccc(F)cc6)CC5)cnc43)cc2)CO1 [Example 25, 6-Chloro-3-((1-(4-fluorobenzoyl)-4-hydroxypiperidin-4-yl)methyl)-7-(4-((3S,6R)-6-methylmorpholin-3-yl)phenyl)-3,7-dihydro-4H-pyrrolo[2,3-d]pyrimidin-4-one]
3 | 0.1 to 0.25 | 0.112 | Cc1cc(-n2c(Cl)cc3c(=O)n(CC4(O)CCN(C(=O)C5(C)CC5)CC4)cnc32)ccc1[C@@H]1COCCN1 (single isomer, unassigned) [Example 74]
4 | 0.25 to 2 | 0.702 | C[C@H]1CN[C@@H](c2ccc(-n3c(Cl)cc4c(=O)n(CC5(O)CCN(C(=O)c6ccc(Cl)cc6)CC5)cnc43)cc2)CO1 (single isomer, unassigned) [Example 68]
5 | < 0.1 | 0.045 | CC1(C(=O)N2CCC(O)(Cn3cnc4c(cc(Cl)n4-c4ccc([C@@H]5COCCN5)cc4)c3=O)CC2)CC1C(F)(F)F (stereo partly drawn) [Example 84, 6-Chloro-3-((4-hydroxy-1-(1-methyl-2-(trifluoromethyl)cyclopropane-1-carbonyl)piperidin-4-yl)methyl)-7-(4-((R)-morpholin-3-yl)phenyl)-3,7-dihydro-4H-pyrrolo[2,3-d]pyrimidin-4-one]
6 | 0.1 to 0.25 | 0.223 | O=C(N1CCC(O)(Cn2cnc3c(cc(Cl)n3-c3ccc([C@@H]4NC[C@@H]5CC[C@H]4O5)cc3)c2=O)CC1)C1(C2CC2)CC1 [Example 49, 7-(4-((1R,2S,5S)-8-Oxa-3-azabicyclo[3.2.1]octan-2-yl)phenyl)-3-((1-([1,1′-bi(cyclopropane)]-1-carbonyl)-4-hydroxypiperidin-4-yl)methyl)-6-chloro-3,7-dihydro-4H-pyrrolo[2,3-d]pyrimidin-4-one]
7 | 0.25 to 2 | 0.302 | C[C@H]1CN[C@H](c2ccc(-n3c(Cl)cc4c(=O)n(CC5(O)CCN(C(=O)c6cccc(F)c6)CC5)cnc43)cc2)CO1 [Example 38, 6-Chloro-3-((1-(3-fluorobenzoyl)-4-hydroxypiperidin-4-yl)methyl)-7-(4-((3R,6S)-6-methylmorpholin-3-yl)phenyl)-3,7-dihydro-4H-pyrrolo[2,3-d]pyrimidin-4-one]
8 | 0.1 to 0.25 | 0.204 | Cc1cc(Cl)ccc1C(=O)N1CCC(O)(Cn2cnc3c(cc(Cl)n3-c3ccc([C@H]4CO[C@H](C)CN4)c(C)c3)c2=O)CC1 [Example 89, 6-Chloro-3-((1-(4-chloro-2-methylbenzoyl)-4-hydroxypiperidin-4-yl)methyl)-7-(3-methyl-4-((3S,6R)-6-methylmorpholin-3-yl)phenyl)-3,7-dihydro-4H-pyrrolo[2,3-d]pyrimidin-4-one]
9 | < 0.1 | 0.08 | C[C@@H]1CN[C@@H](c2ccc(-n3c(Cl)cc4c(=O)n(CC5(O)CCN(C(=O)c6ccc(Cl)cc6)CC5)cnc43)cc2)CO1 [Example 11, 6-Chloro-3-((1-(4-chlorobenzoyl)-4-hydroxypiperidin-4-yl)methyl)-7-(4-((3S,6R)-6-methylmorpholin-3-yl)phenyl)-3,7-dihydro-4H-pyrrolo[2,3-d]pyrimidin-4-one]
10 | < 0.1 | 0.045 | CC1(C)CN[C@H](c2ccc(-n3c(Cl)cc4c(=O)n(CC5(O)CCN(C(=O)C6(C)CC6)CC5)cnc43)cc2)CO1 (single isomer, unassigned) [Example 98, (R)-6-Chloro-7-(4-(6,6-dimethylmorpholin-3-yl)phenyl)-3-((4-hydroxy-1-(1-methylcyclopropane-1-carbonyl)piperidin-4-yl)methyl)-3,7-dihydro-4H-pyrrolo[2,3-d]pyrimidin-4-one or (S)-6-chloro-7-(4-(6,6-dimethylmorpholin-3-yl)phenyl)-3-((4-hydroxy-1-(1-methylcyclopropane-1-carbonyl)piperidin-4-yl)methyl)-3,7-dihydro-4H-pyrrolo[2,3-d]pyrimidin-4-one]
11 | < 0.1 | 0.028 | C[C@@H]1CN[C@@H](c2ccc(-n3c(Cl)cc4c(=O)n(CC5(O)CCN(C(=O)C[C@H](c6ccccc6)C(F)(F)F)CC5)cnc43)cc2)CO1 [Example 13, 6-Chloro-3-((4-hydroxy-1-((R)-4,4,4-trifluoro-3-phenylbutanoyl)piperidin-4-yl)methyl)-7-(4-((3S,6R)-6-methylmorpholin-3-yl)phenyl)-3,7-dihydro-4H-pyrrolo[2,3-d]pyrimidin-4-one]
12 | 0.1 to 0.25 | 0.193 | Cc1cc(-n2c(Cl)cc3c(=O)n(CC4(O)CCN(C(=O)c5ccc(C6(C)CC6)cc5)CC4)cnc32)ccc1[C@H]1CO[C@H](C)CN1 [Example 94, 6-Chloro-3-((4-hydroxy-1-(4-(1-methylcyclopropyl)benzoyl)piperidin-4-yl)methyl)-7-(3-methyl-4-((3S,6R)-6-methylmorpholin-3-yl)phenyl)-3,7-dihydro-4H-pyrrolo[2,3-d]pyrimidin-4-one]
13 | 0.1 to 0.25 | 0.158 | CC1(C(=O)N2CCC(O)(Cn3cnc4c(cc(Cl)n4-c4ccc(C5CNCCO5)cc4)c3=O)CC2)CC1 (stereo not shown) [Example 88, 6-Chloro-3-((4-hydroxy-1-(1-methylcyclopropane-1-carbonyl)piperidin-4-yl)methyl)-7-(4-(morpholin-2-yl)phenyl)-3,7-dihydro-4H-pyrrolo[2,3-d]pyrimidin-4-one]
14 | 0.1 to 0.25 | 0.218 | CC1(C)CN[C@@H](c2ccc(-n3c(Cl)cc4c(=O)n(CC5(O)CCN(C(=O)c6ccc(F)cc6)CC5)cnc43)cc2)CO1 (single isomer, unassigned) [Example 28]
15 | 0.1 to 0.25 | 0.132 | CC[C@H]1CN[C@H](c2ccc(-n3c(Cl)cc4c(=O)n(CC5(O)CCN(C(=O)[C@@]6(C)C[C@@H]6C)CC5)cnc43)cc2)CO1 [Example 95, 6-Chloro-3-((1-((1 S,2S)-1,2-dimethylcyclopropane-1-carbonyl)-4-hydroxypiperidin-4-yl)methyl)-7-(4-((3R,6S)-6-ethylmorpholin-3-yl)phenyl)-3,7-dihydro-4H-pyrrolo[2,3-d]pyrimidin-4-one]
16 | 0.25 to 2 | 1.15 | C[C@H]1CN[C@H](c2ccc(-n3c(Cl)cc4c(=O)n(CC5(O)CCN(C(=O)c6cccc(F)c6F)CC5)cnc43)cc2)CO1 [Example 39, 6-Chloro-3-((1-(2,3-difluorobenzoyl)-4-hydroxypiperidin-4-yl)methyl)-7-(4-((3R,6S)-6-methylmorpholin-3-yl)phenyl)-3,7-dihydro-4H-pyrrolo[2,3-d]pyrimidin-4-one]
17 | < 0.1 | 0.022 | CC1(C(=O)N2CCC(O)(Cn3cnc4c(cc(Cl)n4-c4ccc([C@H]5COCCN5)cc4)c3=O)CC2)CC1 (single isomer, unassigned) [Example 70]
18 | < 0.1 | 0.016 | C[C@H]1CN[C@H](c2ccc(-n3c(Cl)cc4c(=O)n(CC5(O)CCN(C(=O)C[C@H](c6ccccc6)C(F)(F)F)CC5)cnc43)cc2)CO1 [Example 7, 6-Chloro-3-((4-hydroxy-1-((R)-4,4,4-trifluoro-3-phenylbutanoyl)piperidin-4-yl)methyl)-7-(4-((3R,6S)-6-methylmorpholin-3-yl)phenyl)-3,7-dihydro-4H-pyrrolo[2,3-d]pyrimidin-4-one]
19 | < 0.1 | 0.006 | O=C(C[C@H](c1ccccc1)C(F)F)N1CCC(O)(Cn2cnc3c(cc(Cl)n3-c3ccc([C@@H]4COCCN4)cc3)c2=O)CC1 (single isomer, unassigned) [Example 85]
20 | < 0.1 | 0.03 | C[C@H]1CN[C@H](c2ccc(-n3c(Cl)cc4c(=O)n(CC5(O)CCN(C(=O)C6(C)CC6)CC5)cnc43)cc2)CO1 (racemic) [Example 1, rac-6-Chloro-3-((4-hydroxy-1-(1-methylcyclopropane-1-carbonyl)piperidin-4-yl)methyl)-7-(4-((3R,6S)-6-methylmorpholin-3-yl)phenyl)-3,7-dihydro-4H-pyrrolo[2,3-d]pyrimidin-4-one]
21 | < 0.1 | 0.018 | C[C@H]1CN[C@H](c2ccc(-n3c(Cl)cc4c(=O)n(CC5(O)CCN(C(=O)[C@]6(C)C[C@H]6C(F)F)CC5)cnc43)cc2)CO1 [Example 112, 6-Chloro-3-((1-((1R,2R)-2-(difluoromethyl)-1-methylcyclopropane-1-carbonyl)-4-hydroxypiperidin-4-yl)methyl)-7-(4-((3R,6S)-6-methylmorpholin-3-yl)phenyl)-3,7-dihydro-4H-pyrrolo[2,3-d]pyrimidin-4-one]
22 | 0.1 to 0.25 | – | Cc1ccc(C(=O)N2CCC(O)(Cn3cnc4c(cc(Cl)n4-c4ccc([C@H]5CO[C@H](C)CN5)c(C)c4)c3=O)CC2)cc1 [Example 55]
